Measurements as given in US9440957B2, “Compounds and compositions for modulating EGFR Activity” (Novartis AG, priority 2012, dated 2016).
Where two headings read alike, the source gives them in different places.

What was measured:
[1] = molecular target: HaCaT (EGFR WT) (Homo sapiens, UniProt P00533); experiment: EGFR target modulation in HaCaT (EGFR-WT) cell line (phospho-EGFR Y1173 ELISA); type: cell-based; conditions: value in parentheses
Method: EGFR Target Modulation in HaCaT (EGFR-WT) Cell Line Tissue Culture. […] The serial diluted compounds were transferred to the plate containing cells by using a 50 nl Pin Head device (Perkin Elmer) and the cells were placed back in the incubator for 3 hours. […] Phospho-EGFR ([…]) ELISA. Solid white high-binding ELISA plates (Greiner #781074) were coated with 5 ug/ml anti-EGFR capture antibody (R&D Systems #AF231) overnight in 50 mM carbonate/bicarbonate pH 9.5 buffer. […] Wash steps were carried out with a Bio-Tek ELx405 SelectTM using 4 cycles of 100 ul TBS-T (20 mM Tris, 137 mM NaCl, 0.05% Tween-20) per well. […] Lysis was allowed to occur for 20 minutes on ice. A 25 ul aliquot was added to each well of the blocked ELISA plate and incubated overnight at 4° C. with gentle shaking. […] After washing, 1:2,000 anti-rabbit-HRP (Cell Signaling #7074) in 0.2% BSA/TBS-T was added and incubated for 1 hour at room temperature. Chemiluminescent detection was carried out with SuperSignal ELISA Pico substrate (ThermoScientific #37069). Signal was read on EnVision plate reader using built-in UltraLUM setting. Data Analysis. Control cells treated with EGF were set to 100% maximum response. […] With these parameters, the IC50's for each compound in each cell line was calculated using non-linear curve fitting analysis.

[2] = molecular target: H1975 (EGFR L858/T790M) (Homo sapiens, UniProt P00533, L858R/T790M); experiment: EGFR target modulation in H1975 cell line (phospho-EGFR Y1173 ELISA); type: cell-based
Procedure, shortened: (§1)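 3 h compound exposure of cells in 10% FBS/RPMI, 37 °C; lysis on ice 20 min; lysate captured overnight at 4 °C on anti-EGFR-coated plates; anti-rabbit-HRP, chemiluminescence.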

[3] = molecular target: T1, EGFR(L858R/T790M) (Homo sapiens, UniProt P00533, L858R/T790M); experiment: EGFR biochemical assay (HTRF), IC50 determinations
T1 construct: purchased from Carna (GST-a.a. 669-1210)
T1 sequence (P00533 669-1210 T790M/L858R): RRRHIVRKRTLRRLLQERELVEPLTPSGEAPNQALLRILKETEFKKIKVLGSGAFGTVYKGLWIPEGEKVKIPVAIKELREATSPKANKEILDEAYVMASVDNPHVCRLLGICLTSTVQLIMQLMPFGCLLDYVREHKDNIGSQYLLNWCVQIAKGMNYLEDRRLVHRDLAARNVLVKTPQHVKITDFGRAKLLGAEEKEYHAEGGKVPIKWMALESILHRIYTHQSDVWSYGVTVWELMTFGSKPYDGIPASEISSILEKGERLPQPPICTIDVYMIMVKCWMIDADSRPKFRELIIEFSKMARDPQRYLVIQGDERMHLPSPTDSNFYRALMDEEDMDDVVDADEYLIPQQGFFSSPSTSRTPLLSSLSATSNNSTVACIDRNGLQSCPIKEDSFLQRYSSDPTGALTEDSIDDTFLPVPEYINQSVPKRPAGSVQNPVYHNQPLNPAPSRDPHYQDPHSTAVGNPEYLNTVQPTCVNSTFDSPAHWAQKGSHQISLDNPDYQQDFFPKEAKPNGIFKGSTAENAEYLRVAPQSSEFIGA
Procedure, shortened: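 HTRF kinase reaction with biotin-TK peptide at room temperature, quenched with EDTA at 60 min and detected with PT66K/SAXL after 1 h. Without preincubation, enzyme starts the reaction with compound, ATP and peptide present. With preincubation, compound, enzyme and peptide sit at room temperature for a set time before ATP is added.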

[4] = molecular target: HCC827 (Del E746-A750) (Homo sapiens, UniProt P00533, DEL746-750); experiment: EGFR target modulation in HCC827 cell line (phospho-EGFR Y1173 ELISA); type: cell-based
Procedure, shortened: as §1

[5] = molecular target: H3255 (EGFR L858R) (Homo sapiens, UniProt P00533, L858R); experiment: EGFR target modulation in H3255 cell line (phospho-EGFR Y1173 ELISA); type: cell-based
H3255 (EGFR L858R), sequence (P00533 25-1210 L858R): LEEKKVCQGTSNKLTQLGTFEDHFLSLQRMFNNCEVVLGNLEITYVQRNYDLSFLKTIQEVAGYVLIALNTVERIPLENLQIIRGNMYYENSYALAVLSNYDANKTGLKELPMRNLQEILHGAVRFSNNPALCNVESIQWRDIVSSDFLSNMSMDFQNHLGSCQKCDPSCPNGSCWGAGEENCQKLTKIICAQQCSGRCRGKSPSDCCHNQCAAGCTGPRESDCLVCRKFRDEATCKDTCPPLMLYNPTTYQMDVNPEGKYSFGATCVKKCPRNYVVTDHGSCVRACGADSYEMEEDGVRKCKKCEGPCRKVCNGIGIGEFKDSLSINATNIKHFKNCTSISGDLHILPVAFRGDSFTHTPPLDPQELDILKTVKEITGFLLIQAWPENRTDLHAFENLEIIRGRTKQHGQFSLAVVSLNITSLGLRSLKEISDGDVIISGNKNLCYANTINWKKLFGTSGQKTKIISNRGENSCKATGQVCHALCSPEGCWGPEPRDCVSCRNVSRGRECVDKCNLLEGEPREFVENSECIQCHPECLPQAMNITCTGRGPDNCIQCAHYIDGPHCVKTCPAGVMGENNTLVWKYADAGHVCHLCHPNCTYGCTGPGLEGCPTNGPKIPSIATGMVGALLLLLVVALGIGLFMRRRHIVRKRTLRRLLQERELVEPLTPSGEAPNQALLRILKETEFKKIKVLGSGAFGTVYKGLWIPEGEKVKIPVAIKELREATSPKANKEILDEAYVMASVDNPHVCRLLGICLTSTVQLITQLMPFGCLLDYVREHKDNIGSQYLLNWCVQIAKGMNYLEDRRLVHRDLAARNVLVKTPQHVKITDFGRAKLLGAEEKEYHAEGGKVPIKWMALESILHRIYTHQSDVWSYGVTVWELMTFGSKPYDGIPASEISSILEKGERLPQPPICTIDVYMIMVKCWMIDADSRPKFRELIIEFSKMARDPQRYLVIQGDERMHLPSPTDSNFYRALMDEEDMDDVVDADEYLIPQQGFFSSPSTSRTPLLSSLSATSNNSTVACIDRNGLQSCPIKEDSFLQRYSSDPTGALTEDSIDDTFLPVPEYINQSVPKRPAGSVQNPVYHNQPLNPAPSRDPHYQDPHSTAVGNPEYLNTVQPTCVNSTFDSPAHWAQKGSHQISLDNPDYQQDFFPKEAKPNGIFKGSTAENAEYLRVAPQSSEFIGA
Procedure, shortened: as §1

[6] = molecular target: HEKn (EGFR WT) (Homo sapiens, UniProt P00533); experiment: EGFR target modulation in HEKn (EGFR-WT) cell line (phospho-EGFR Y1173 ELISA); type: cell-based; conditions: value outside parentheses
HEKn (EGFR WT), sequence (P00533 25-1210): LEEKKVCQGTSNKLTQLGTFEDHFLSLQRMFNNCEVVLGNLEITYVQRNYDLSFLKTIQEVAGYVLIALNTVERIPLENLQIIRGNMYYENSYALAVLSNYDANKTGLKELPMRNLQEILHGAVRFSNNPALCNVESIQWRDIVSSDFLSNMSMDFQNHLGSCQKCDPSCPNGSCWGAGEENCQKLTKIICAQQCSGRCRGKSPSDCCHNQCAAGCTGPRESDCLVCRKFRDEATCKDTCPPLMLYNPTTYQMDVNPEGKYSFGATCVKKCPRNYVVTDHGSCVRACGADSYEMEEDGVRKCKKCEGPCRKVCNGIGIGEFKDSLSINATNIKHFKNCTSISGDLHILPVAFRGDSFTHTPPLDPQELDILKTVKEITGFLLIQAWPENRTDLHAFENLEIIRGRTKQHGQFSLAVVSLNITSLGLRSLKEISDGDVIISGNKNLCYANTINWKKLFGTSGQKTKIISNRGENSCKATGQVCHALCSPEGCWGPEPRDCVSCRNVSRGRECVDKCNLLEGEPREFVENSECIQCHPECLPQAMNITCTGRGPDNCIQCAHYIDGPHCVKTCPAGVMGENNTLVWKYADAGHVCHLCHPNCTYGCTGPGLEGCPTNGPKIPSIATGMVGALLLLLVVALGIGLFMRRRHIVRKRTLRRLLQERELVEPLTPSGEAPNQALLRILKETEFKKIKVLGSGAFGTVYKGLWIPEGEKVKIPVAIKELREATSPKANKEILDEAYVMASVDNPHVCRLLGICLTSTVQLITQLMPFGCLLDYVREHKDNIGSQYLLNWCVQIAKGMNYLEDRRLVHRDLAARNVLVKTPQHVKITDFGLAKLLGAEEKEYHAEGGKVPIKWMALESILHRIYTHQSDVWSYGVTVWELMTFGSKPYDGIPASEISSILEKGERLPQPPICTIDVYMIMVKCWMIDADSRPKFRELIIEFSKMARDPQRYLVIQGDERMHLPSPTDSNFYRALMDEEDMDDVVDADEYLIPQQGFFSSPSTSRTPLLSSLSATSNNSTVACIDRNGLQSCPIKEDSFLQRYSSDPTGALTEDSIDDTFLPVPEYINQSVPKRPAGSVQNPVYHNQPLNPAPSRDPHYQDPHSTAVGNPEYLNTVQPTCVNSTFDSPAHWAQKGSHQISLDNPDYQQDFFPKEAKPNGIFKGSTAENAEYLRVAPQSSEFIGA
Procedure, shortened: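 Primary neonatal human keratinocytes (EGFR WT) were exposed to serially diluted compounds for 3 h, then lysed on ice. Phospho-EGFR Y1173 was measured by chemiluminescent sandwich ELISA using anti-EGFR capture.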

[7] = EGFR (L858R/T790M) with 90 min pre-incubation, read-out: IC50 (μM) Column B
[8] = EGFR (L858R/T790M) with no pre-incubation, read-out: IC50 (μM) Column A

HaCaT (EGFR WT), sequence (P00533 25-1210): as above

Cc1cc(C(=O)Nc2nc3cccc(Cl)c3n2[C@@H]2CCCCN(C(=O)/C=C/C(C)(C)N(C)C)C2)ccn1 [Example 3-18]
IC50 [1]: > 10000 nM | IC50 [2]: 1050 nM | IC50 [3, 7]: 0.108 µM | IC50 [3, 8]: 0.135 µM | IC50 [4]: 480 nM | IC50 [5]: 719 nM

C=CC(=O)N1CCCC[C@@H](n2c(NC(=O)c3cc(C)nc(C)c3)nc3ccc(OCCN4CCCC4)c(Cl)c32)C1 [Example 15, (R)—N-(1-(1-acryloylazepan-3-yl)-7-chloro-6-(2-(pyrrolidin-1-yl)ethoxy)-1H-benzo[d]imidazol-2-yl)-2,6-dimethylisonicotinamide]
IC50 [1]: 139 nM | IC50 [2]: 1 nM | IC50 [3, 7]: < 0.001 µM | IC50 [3, 8]: 0.004 µM | IC50 [4]: 1 nM | IC50 [5]: 3 nM

Cc1cc(C(=O)Nc2nc3cccc(Cl)c3n2[C@@H]2CCCCN(C(=O)/C=C/CN(C3CC3)C3CC3)C2)ccn1 [Example 16, (R,E)-N-(7-chloro-1-(1-(4-(dicyclopropylamino)but-2-enoyl)azepan-3-yl)-1H-benzo[d]imidazol-2-yl)-2-methylisonicotinamide]
IC50 [1]: 1100 nM | IC50 [2]: 58 nM | IC50 [3, 7]: 0.005 µM | IC50 [3, 8]: 0.045 µM | IC50 [5]: 60 nM

C=CC(=O)N1CCCC[C@@H](n2c(NC(=O)c3cc(C)nc(C)c3)nc3cc(CN4CC[C@H](F)C4)cc(C)c32)C1 [Example 17-158]
IC50 [1]: 67 nM | IC50 [2]: < 1 nM | IC50 [6]: 82 nM | IC50 [3, 7]: < 0.001 µM | IC50 [3, 8]: 0.002 µM | IC50 [5]: 2 nM

C=CC(=O)N1CCCC[C@@H](n2c(NC(=O)c3cc(C)nc(C)c3)nc3cc(CN4CC[C@@H](F)C4)cc(C)c32)C1 [Example 17-159]
IC50 [1]: 84 nM | IC50 [2]: < 1 nM | IC50 [6]: 70 nM | IC50 [3, 7]: < 0.001 µM | IC50 [3, 8]: 0.002 µM | IC50 [5]: 2 nM

C/C=C/C(=O)N1CCCC[C@@H](n2c(NC(=O)c3cc(C)nc(C)c3)nc3cc(CN4CC[C@H](OC)C4)ccc32)C1 [Example 17-174]
IC50 [1]: > 10000 nM | IC50 [2]: 93 nM | IC50 [6]: > 10000 nM | IC50 [3, 7]: 0.01 µM | IC50 [3, 8]: 0.21 µM | IC50 [5]: 202 nM

C=CC(=O)N1CCCC[C@@H](n2c(NC(=O)c3cc(C)nc(C)c3)nc3cc(CN4CC[C@H](OC)C4)ccc32)C1 [Example 17-175]
IC50 [1]: 522 nM | IC50 [2]: 2 nM | IC50 [6]: 289 nM | IC50 [3, 7]: < 0.001 µM | IC50 [3, 8]: 0.004 µM | IC50 [5]: 4 nM

C=CC(=O)N1CCCC[C@@H](n2c(NC(=O)c3cc(C)nc(C)c3)nc3cc(CN4CCN(C)C(=O)C4)cc(C)c32)C1 [Example 17-180]
IC50 [1]: 92 nM | IC50 [2]: 1 nM | IC50 [3, 7]: < 0.001 µM | IC50 [3, 8]: 0.003 µM | IC50 [4]: 1 nM | IC50 [5]: 1 nM

C=CC(=O)N1CCCC[C@@H](n2c(NC(=O)c3cc(C)nc(C)c3)nc3cc(CN4CCN(C(C)=O)CC4)cc(C)c32)C1 [Example 17-181]
IC50 [1]: 77 nM | IC50 [2]: 1 nM | IC50 [3, 7]: < 0.001 µM | IC50 [3, 8]: 0.003 µM | IC50 [4]: 1 nM | IC50 [5]: 1 nM

Cc1cc(C(=O)Nc2nc3cccc(Cl)c3n2[C@@H]2CCCCN(C(=O)/C=C/CN(C)C)C2)cc(P(C)(C)=O)n1 [Example 17-182]
IC50 [1]: > 10000 nM | IC50 [2]: 770 nM | IC50 [3, 7]: 0.022 µM | IC50 [3, 8]: 0.472 µM | IC50 [5]: 422 nM

Cc1cc(C(=O)Nc2nc3cccc(Cl)c3n2[C@@H]2CCCCN(C(=O)/C=C/CN(C)C(=O)OC(C)(C)C)C2)ccn1 [Example 17-184]
IC50 [1]: > 10000 nM | IC50 [2]: 3740 nM | IC50 [3, 7]: 5.84 µM | IC50 [3, 8]: 16.1 µM | IC50 [5]: 4840 nM

CNC/C=C/C(=O)N1CCCC[C@@H](n2c(NC(=O)c3ccnc(C)c3)nc3cccc(Cl)c32)C1 [Example 17-185]
IC50 [1]: 44 nM | IC50 [2]: 1 nM | IC50 [6]: 44 nM | IC50 [3, 7]: < 0.001 µM | IC50 [3, 8]: 0.002 µM | IC50 [4]: 1 nM | IC50 [5]: 2 nM

CNC/C=C/C(=O)N1CCCC[C@@H](n2c(NC(=O)c3cc(C)nc(C)c3)nc3cccc(Cl)c32)C1 [Example 17-186]
IC50 [1]: 213 nM | IC50 [2]: 2 nM | IC50 [6]: 291 nM | IC50 [3, 7]: < 0.001 µM | IC50 [3, 8]: 0.004 µM | IC50 [4]: 2 nM | IC50 [5]: 10 nM

Cc1cc(C(=O)Nc2nc3cccc(C(F)(F)F)c3n2[C@@H]2CCCCN(C(=O)/C=C/CN(C)C)C2)ccn1 [Example 17-187]
IC50 [1]: 475 nM | IC50 [2]: 13 nM | IC50 [3, 7]: 0.001 µM | IC50 [3, 8]: 0.022 µM | IC50 [4]: 2 nM | IC50 [5]: 14 nM

Cc1cc(C(=O)Nc2nc3cccc(C(F)(F)F)c3n2[C@@H]2CCCCN(C(=O)/C=C/CN(C)C)C2)cc(C)n1 [Example 17-188]
IC50 [1]: 870 nM | IC50 [2]: 16 nM | IC50 [3, 7]: 0.003 µM | IC50 [3, 8]: 0.04 µM | IC50 [4]: 10 nM | IC50 [5]: 39 nM

Cc1cc(C(=O)Nc2nc3cccc(Cl)c3n2[C@@H]2CCCCN(C(=O)/C=C/CNC3CC3)C2)ccn1 [Example 17-190]
IC50 [1]: 47 nM | IC50 [2]: 2 nM | IC50 [3, 7]: < 0.001 µM | IC50 [3, 8]: 0.003 µM | IC50 [5]: 3 nM

Cc1cc(C(=O)Nc2nc3cccc(Cl)c3n2[C@@H]2CCCCN(C(=O)/C=C/CNC(C)(C)C)C2)ccn1 [Example 17-191]
IC50 [1]: 59 nM | IC50 [2]: 2 nM | IC50 [3, 7]: < 0.001 µM | IC50 [3, 8]: 0.004 µM | IC50 [5]: 3 nM

Cc1cc(C(=O)Nc2nc3cccc(Cl)c3n2[C@@H]2CCCCN(C(=O)/C=C/CNC3(C)CC3)C2)ccn1 [Example 17-192]
IC50 [1]: 37 nM | IC50 [2]: 2 nM | IC50 [3, 7]: < 0.001 µM | IC50 [3, 8]: 0.003 µM | IC50 [5]: 2 nM

C=CC(=O)N1CCCC[C@@H](n2c(NC(=O)c3ccnc(C)c3)nc3ccc(OCCN4CCCC4)c(Cl)c32)C1 [Example 17-193]
IC50 [1]: 44 nM | IC50 [2]: 1 nM | IC50 [3, 7]: < 0.001 µM | IC50 [3, 8]: 0.002 µM | IC50 [4]: 1 nM | IC50 [5]: 2 nM

C/C=C/C(=O)N1CCCC[C@@H](n2c(NC(=O)c3ccnc(C)c3)nc3ccc(OCCN4CCCC4)c(Cl)c32)C1 [Example 17-194]
IC50 [1]: 576 nM | IC50 [2]: 41 nM | IC50 [3, 7]: 0.006 µM | IC50 [3, 8]: 0.068 µM | IC50 [4]: 16 nM | IC50 [5]: 67 nM

C/C=C/C(=O)N1CCCC[C@@H](n2c(NC(=O)c3cc(C)nc(C)c3)nc3ccc(OCCN4CCCC4)c(Cl)c32)C1 [Example 17-195]
IC50 [1]: 7120 nM | IC50 [2]: 36 nM | IC50 [3, 7]: 0.007 µM | IC50 [3, 8]: 0.116 µM | IC50 [4]: 45 nM | IC50 [5]: 181 nM

Cc1cc(C(=O)Nc2nc3cccc(Cl)c3n2[C@H]2CCCCN(C(=O)/C=C/CN(C)C)C2)cc(C)n1 [Example 17-197]
IC50 [1]: > 10000 nM | IC50 [2]: 935 nM | IC50 [3, 7]: 0.117 µM | IC50 [3, 8]: 1.67 µM | IC50 [5]: 2000 nM
